Test results taken from ChEMBL document CHEMBL1759897, “Discovery of non-peptide, small molecule antagonists of α9α10 nicotinic acetylcholine receptors as novel analgesics for the treatment of neuropathic and tonic inflammatory pain” (Bioorg Med Chem Lett, 2011).
Activity calls are given as the source filed them. The rule behind the calls is not given here.

How the values were obtained:
Rattus norvegicus [1] = species on record: Rattus norvegicus; assay: Analgesic activity in rat chronic constriction nerve injury model of neuropathic pain assessed as reversal of mechanical hyperalgesia; assay type: functional, organism-based
[2] = molecular target: Neuronal acetylcholine receptor; alpha9/alpha10 (Homo sapiens) (UniProt Q9UGM1+Q9GZZ6); assay: Antagonist activity at alpha9/alpha10 nAChR expressed in Xenopus oocyte assessed as inhibition of ACh-gated current response at 100 nM by voltage clamp electrophysiology assay; assay type: functional; set-up: scale not given: the % may be the effect or the level left
Rattus norvegicus [3] = species on record: Rattus norvegicus; assay: Analgesic activity in rat inflammatory pain model assessed reduction formalin-induced inflammatory pain; assay type: functional, organism-based
[4] = molecular target: Neuronal acetylcholine receptor subunit alpha-7 (Homo sapiens, UniProt P36544); assay: Antagonist activity at alpha7 nAChR expressed in Xenopus oocyte assessed as inhibition of ACh-gated current by voltage clamp electrophysiology assay; assay type: functional
Chain of Neuronal acetylcholine receptor subunit alpha-7 (P36544 whole entry): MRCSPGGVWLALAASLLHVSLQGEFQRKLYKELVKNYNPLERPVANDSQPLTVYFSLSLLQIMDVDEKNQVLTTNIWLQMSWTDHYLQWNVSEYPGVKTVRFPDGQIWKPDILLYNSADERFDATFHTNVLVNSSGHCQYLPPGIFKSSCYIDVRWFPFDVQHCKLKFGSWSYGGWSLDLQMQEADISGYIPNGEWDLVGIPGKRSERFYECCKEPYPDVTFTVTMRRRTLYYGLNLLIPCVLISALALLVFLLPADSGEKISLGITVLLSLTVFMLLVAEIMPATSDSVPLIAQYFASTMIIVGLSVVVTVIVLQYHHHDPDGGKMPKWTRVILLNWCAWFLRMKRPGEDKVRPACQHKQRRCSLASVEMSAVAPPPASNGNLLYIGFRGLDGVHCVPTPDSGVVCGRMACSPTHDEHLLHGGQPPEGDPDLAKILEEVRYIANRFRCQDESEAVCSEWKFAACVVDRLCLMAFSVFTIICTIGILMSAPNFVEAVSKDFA

Rattus norvegicus [5] = species on record: Rattus norvegicus; assay: Analgesic activity in rat pain model by tail flick test; assay type: functional, organism-based
Rattus norvegicus [6] = assay: Analgesic activity in rat chronic constriction nerve injury model of neuropathic pain assessed as reversal of mechanical hyperalgesia measured after repeated dosing for 7 days; assay type: functional, organism-based
[7] = molecular target: Neuronal acetylcholine receptor; alpha9/alpha10 (Homo sapiens, UniProt Q9GZZ6+Q9UGM1); assay: Antagonist activity at alpha9/alpha10 nAChR expressed in Xenopus oocyte assessed as inhibition of ACh-gated current by voltage clamp electrophysiology assay; assay type: functional
Chain of Neuronal acetylcholine receptor; alpha9/alpha10 (Q9UGM1 whole entry): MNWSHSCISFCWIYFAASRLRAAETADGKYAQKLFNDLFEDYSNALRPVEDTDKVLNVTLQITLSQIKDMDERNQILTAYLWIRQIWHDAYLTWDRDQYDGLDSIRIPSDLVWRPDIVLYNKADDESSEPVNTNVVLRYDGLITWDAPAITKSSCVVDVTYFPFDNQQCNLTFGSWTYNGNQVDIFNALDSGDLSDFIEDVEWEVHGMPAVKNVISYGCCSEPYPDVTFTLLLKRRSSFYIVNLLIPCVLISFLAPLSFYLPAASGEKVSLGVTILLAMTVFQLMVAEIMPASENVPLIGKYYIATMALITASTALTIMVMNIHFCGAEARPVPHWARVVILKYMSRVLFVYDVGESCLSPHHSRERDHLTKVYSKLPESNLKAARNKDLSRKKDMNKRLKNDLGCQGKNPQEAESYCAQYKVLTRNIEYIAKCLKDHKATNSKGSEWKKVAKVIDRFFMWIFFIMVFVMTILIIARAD
Chain of Neuronal acetylcholine receptor; alpha9/alpha10 (Q9GZZ6 whole entry): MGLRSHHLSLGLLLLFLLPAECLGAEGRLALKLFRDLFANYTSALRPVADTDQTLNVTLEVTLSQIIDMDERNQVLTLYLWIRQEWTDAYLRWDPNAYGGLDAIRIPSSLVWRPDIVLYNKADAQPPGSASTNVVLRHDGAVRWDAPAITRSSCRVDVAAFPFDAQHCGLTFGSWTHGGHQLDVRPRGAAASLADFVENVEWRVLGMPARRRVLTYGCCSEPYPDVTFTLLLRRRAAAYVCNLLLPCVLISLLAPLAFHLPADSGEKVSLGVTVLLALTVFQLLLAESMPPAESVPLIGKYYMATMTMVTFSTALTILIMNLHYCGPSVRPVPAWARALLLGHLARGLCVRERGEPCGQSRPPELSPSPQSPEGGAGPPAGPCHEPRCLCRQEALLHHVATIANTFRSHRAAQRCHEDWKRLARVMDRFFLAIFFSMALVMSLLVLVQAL

[8] = molecular target: Neuronal acetylcholine receptor; alpha3/beta4 (Homo sapiens, UniProt P30926+P32297); assay: Inhibition of alpha3beta4 nAChR; assay type: protein-complex assay
Chain of Neuronal acetylcholine receptor; alpha3/beta4 (P30926 whole entry): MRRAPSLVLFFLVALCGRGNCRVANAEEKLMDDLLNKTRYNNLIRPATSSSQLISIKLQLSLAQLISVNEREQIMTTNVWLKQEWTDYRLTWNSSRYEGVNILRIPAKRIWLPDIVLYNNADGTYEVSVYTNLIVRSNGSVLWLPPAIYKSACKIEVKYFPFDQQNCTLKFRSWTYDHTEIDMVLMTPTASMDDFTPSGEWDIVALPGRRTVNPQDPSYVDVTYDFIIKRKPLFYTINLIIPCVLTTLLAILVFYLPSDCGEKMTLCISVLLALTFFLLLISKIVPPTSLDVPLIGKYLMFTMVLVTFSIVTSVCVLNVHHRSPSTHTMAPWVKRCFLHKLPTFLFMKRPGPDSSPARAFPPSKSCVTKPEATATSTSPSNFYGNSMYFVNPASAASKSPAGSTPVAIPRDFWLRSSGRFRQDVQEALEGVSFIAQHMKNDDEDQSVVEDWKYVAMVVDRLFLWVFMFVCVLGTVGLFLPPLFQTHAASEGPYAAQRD
Chain of Neuronal acetylcholine receptor; alpha3/beta4 (P32297 whole entry): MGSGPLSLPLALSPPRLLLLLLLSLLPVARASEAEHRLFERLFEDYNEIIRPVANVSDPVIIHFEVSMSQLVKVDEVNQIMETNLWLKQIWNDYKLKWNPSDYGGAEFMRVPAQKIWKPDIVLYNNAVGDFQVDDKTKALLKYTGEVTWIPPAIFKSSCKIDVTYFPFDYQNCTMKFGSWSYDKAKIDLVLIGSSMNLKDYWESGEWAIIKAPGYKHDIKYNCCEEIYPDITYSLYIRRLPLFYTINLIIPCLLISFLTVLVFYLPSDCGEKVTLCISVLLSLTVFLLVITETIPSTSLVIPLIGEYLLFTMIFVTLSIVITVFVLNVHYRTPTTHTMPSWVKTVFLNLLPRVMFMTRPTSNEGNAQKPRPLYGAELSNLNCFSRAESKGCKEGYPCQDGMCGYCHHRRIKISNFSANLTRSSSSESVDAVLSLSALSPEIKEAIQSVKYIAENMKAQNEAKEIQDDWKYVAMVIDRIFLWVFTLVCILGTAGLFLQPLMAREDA

[9] = molecular target: Neuronal acetylcholine receptor; alpha4/beta2 (Homo sapiens, UniProt P17787+P43681); assay: Inhibition of alpha4beta2 nAChR; assay type: protein-complex assay
Chain of Neuronal acetylcholine receptor; alpha4/beta2 (P17787 whole entry): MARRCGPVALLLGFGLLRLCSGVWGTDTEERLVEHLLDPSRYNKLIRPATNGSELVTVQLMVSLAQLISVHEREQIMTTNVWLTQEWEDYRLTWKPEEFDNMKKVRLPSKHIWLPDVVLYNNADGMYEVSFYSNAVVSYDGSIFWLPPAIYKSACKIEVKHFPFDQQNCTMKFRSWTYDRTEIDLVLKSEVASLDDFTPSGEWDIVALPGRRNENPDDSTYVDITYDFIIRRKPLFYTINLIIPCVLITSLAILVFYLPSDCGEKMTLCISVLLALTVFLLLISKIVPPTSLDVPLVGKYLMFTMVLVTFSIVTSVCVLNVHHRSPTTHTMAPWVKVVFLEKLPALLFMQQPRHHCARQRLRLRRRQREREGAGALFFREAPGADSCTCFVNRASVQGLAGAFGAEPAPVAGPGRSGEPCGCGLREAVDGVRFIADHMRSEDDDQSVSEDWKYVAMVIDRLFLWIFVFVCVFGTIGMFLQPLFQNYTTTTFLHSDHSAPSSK
Chain of Neuronal acetylcholine receptor; alpha4/beta2 (P43681 whole entry): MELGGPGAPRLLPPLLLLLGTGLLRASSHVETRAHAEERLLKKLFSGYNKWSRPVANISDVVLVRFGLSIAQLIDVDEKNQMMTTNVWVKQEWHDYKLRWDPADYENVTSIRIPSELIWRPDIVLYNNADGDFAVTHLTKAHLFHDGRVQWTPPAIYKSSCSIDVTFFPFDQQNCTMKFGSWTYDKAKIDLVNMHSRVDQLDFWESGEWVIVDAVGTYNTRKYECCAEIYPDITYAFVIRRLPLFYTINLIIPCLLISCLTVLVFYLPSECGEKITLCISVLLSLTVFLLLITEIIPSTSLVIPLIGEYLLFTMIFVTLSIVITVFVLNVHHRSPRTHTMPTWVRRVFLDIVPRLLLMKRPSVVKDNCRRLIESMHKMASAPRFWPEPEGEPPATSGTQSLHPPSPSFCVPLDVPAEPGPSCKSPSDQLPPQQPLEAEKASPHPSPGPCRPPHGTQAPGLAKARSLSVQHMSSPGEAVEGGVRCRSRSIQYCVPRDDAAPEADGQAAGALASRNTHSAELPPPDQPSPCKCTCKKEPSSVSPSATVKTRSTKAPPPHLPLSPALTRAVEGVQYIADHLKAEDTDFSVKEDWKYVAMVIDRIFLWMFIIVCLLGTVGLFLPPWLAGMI

[10] = Inhibition of muscle nAChR; assay type: tissue-based, Muscle tissue

SMILES | Activity [2] | other results
Cc1cc[n+](CC#Cc2ccc(-c3ccc(C#CC[n+]4ccc(C)c(C)c4)cc3)cc2)cc1C | 8.1% | Activity (Rattus norvegicus [1]): Dose-dependent effect; Activity (Rattus norvegicus [3]): Active; IC50 [4]: 1190 nM; Activity (Rattus norvegicus [5]): inactive; Activity (Rattus norvegicus [6]): inactive; IC50 [7]: 16 nM
Cc1cc(C)c[n+](CCCCCc2ccccc2CCCCC[n+]2cc(C)cc(C)c2)c1 | 124% | 
c1ccc2c[n+](CCCCCc3cc(CCCCC[n+]4ccc5ccccc5c4)c(CCCCC[n+]4ccc5ccccc5c4)cc3CCCCC[n+]3ccc4ccccc4c3)ccc2c1 | 17.9% | 
Cc1cc[n+](CCCC#Cc2cccc(C#CCCC[n+]3ccc(C)c(C)c3)c2)cc1C | 76.9% | 
CCCCc1ccc[n+](CCCC#Cc2cc(C#CCCC[n+]3cccc(CCCC)c3)cc(C#CCCC[n+]3cccc(CCCC)c3)c2)c1 | 36.1% | 
Cc1cc(C)c[n+](CCCC#Cc2cc(C#CCCC[n+]3cc(C)cc(C)c3)c(C#CCCC[n+]3cc(C)cc(C)c3)cc2C#CCCC[n+]2cc(C)cc(C)c2)c1 | 0.3% | 
C(#Cc1ccccc1C#CCCC[n+]1ccc2ccccc2c1)CCC[n+]1ccc2ccccc2c1 | 28% | 
Cc1cc[n+](CCCCCc2cc(CCCCC[n+]3ccc(C)c(C)c3)cc(CCCCC[n+]3ccc(C)c(C)c3)c2)cc1C | 62.7% | 
Cc1cc(C)c[n+](CCCCc2ccc(CCCC[n+]3cc(C)cc(C)c3)cc2)c1 | 97.1% | 
Cc1cc[n+](CCCCCc2cccc(CCCCC[n+]3ccc(C)c(C)c3)c2)cc1C | 62.7% | 
CCCCc1ccc[n+](CCCCCc2cc(CCCCC[n+]3cccc(CCCC)c3)cc(CCCCC[n+]3cccc(CCCC)c3)c2)c1 | 16.1% | 
c1ccc(CCCCC[n+]2ccc3ccccc3c2)c(CCCCC[n+]2ccc3ccccc3c2)c1 | 31.1% | 
C(#Cc1cccc(C#CCCC[n+]2ccc3ccccc3c2)c1)CCC[n+]1ccc2ccccc2c1 | 39.7% | 
Cc1cc[n+](CCCC#Cc2cc(C#CCCC[n+]3ccc(C)c(C)c3)c(C#CCCC[n+]3ccc(C)c(C)c3)cc2C#CCCC[n+]2ccc(C)c(C)c2)cc1C | 47.4% | 
Cc1cc[n+](CCCc2ccc(-c3ccc(CCC[n+]4ccc(C)c(C)c4)cc3)cc2)cc1C | 89.3% | 
C(#Cc1cc(C#CCCC[n+]2cccc3ccccc32)cc(C#CCCC[n+]2cccc3ccccc32)c1)CCC[n+]1cccc2ccccc21 | 10.5% | 
C(#Cc1cc(C#CCCC[n+]2cccc(-c3ccccc3)c2)cc(C#CCCC[n+]2cccc(-c3ccccc3)c2)c1)CCC[n+]1cccc(-c2ccccc2)c1 | 5.5% | 
c1cc(CCCCC[n+]2ccc3ccccc3c2)cc(CCCCC[n+]2ccc3ccccc3c2)c1 | 37.5% | 
Cc1cc(C)c[n+](CCCC#Cc2cc(C#CCCC[n+]3cc(C)cc(C)c3)cc(C#CCCC[n+]3cc(C)cc(C)c3)c2)c1 | 66% | 
Cc1cc(C)c[n+](CCCCCc2cc(CCCCC[n+]3cc(C)cc(C)c3)cc(CCCCC[n+]3cc(C)cc(C)c3)c2)c1 | 79.8% | 

SMILES | Activity [2] | other results
Cc1cc[n+](CCCCc2ccc(CCCC[n+]3ccc(C)c(C)c3)cc2)cc1C | 36.7% | 
c1ccc(-c2ccc[n+](CCCCCc3cc(CCCCC[n+]4cccc(-c5ccccc5)c4)cc(CCCCC[n+]4cccc(-c5ccccc5)c4)c3)c2)cc1 | 3.84% | 
Cc1cc(C)c[n+](CCCC#Cc2ccccc2C#CCCC[n+]2cc(C)cc(C)c2)c1 | 67.6% | 
Cc1cc(C)c[n+](CCC#Cc2ccc(C#CCC[n+]3cc(C)cc(C)c3)cc2)c1 | 76.2% | 
C(#Cc1cccc(C#CCCC[n+]2cccc3ccccc32)c1)CCC[n+]1cccc2ccccc21 | 41.6% | 
Cc1cc(C)c[n+](CCCCCc2cc(CCCCC[n+]3cc(C)cc(C)c3)c(CCCCC[n+]3cc(C)cc(C)c3)cc2CCCCC[n+]2cc(C)cc(C)c2)c1 | 0.6% | 
C(#Cc1cccc(C#CCCC[n+]2cccc(-c3ccccc3)c2)c1)CCC[n+]1cccc(-c2ccccc2)c1 | 23.2% | 
c1ccc(CCCCC[n+]2cccc3ccccc32)c(CCCCC[n+]2cccc3ccccc32)c1 | 10.9% | 
c1ccc2c(c1)ccc[n+]2CCCCCc1cc(CCCCC[n+]2cccc3ccccc32)cc(CCCCC[n+]2cccc3ccccc32)c1 | 15.9% | Activity (Rattus norvegicus [1]): Dose-dependent effect; Activity (Rattus norvegicus [3]): Active; Activity (Rattus norvegicus [5]): inactive; Activity (Rattus norvegicus [6]): inactive
Cc1cc[n+](CCCC#Cc2ccccc2C#CCCC[n+]2ccc(C)c(C)c2)cc1C | 31.3% | 
Cc1cc(C)c[n+](CCCc2ccc(-c3ccc(CCC[n+]4cc(C)cc(C)c4)cc3)cc2)c1 | 114% | 
c1ccc2c[n+](CCCCCc3cc(CCCCC[n+]4ccc5ccccc5c4)cc(CCCCC[n+]4ccc5ccccc5c4)c3)ccc2c1 | 6.9% | 
Cc1cc[n+](CCCCCc2cc(CCCCC[n+]3ccc(C)c(C)c3)c(CCCCC[n+]3ccc(C)c(C)c3)cc2CCCCC[n+]2ccc(C)c(C)c2)cc1C | 11% | 
c1cc(CCCCC[n+]2cccc3ccccc32)cc(CCCCC[n+]2cccc3ccccc32)c1 | 42.6% | 
Cc1cc[n+](CCCC#Cc2cc(C#CCCC[n+]3ccc(C)c(C)c3)cc(C#CCCC[n+]3ccc(C)c(C)c3)c2)cc1C | 61.1% | 
c1ccc(-c2ccc[n+](CCCCCc3cc(CCCCC[n+]4cccc(-c5ccccc5)c4)c(CCCCC[n+]4cccc(-c5ccccc5)c4)cc3CCCCC[n+]3cccc(-c4ccccc4)c3)c2)cc1 | 6.5% | IC50 [4]: 99 nM; IC50 [7]: 5.4 nM
C(#Cc1cc(C#CCCC[n+]2ccc3ccccc3c2)c(C#CCCC[n+]2ccc3ccccc3c2)cc1C#CCCC[n+]1ccc2ccccc2c1)CCC[n+]1ccc2ccccc2c1 | 11.6% | 
C(#Cc1cc(C#CCCC[n+]2cccc(-c3ccccc3)c2)c(C#CCCC[n+]2cccc(-c3ccccc3)c2)cc1C#CCCC[n+]1cccc(-c2ccccc2)c1)CCC[n+]1cccc(-c2ccccc2)c1 | 0.3% | Activity (Rattus norvegicus [1]): Dose-dependent effect; Activity (Rattus norvegicus [3]): Active; IC50 [8]: 800 nM; Activity (Rattus norvegicus [5]): inactive; Activity (Rattus norvegicus [6]): inactive; IC50 [9]: 3800 nM; IC50 [10]: 120 nM
Cc1cc[n+](CCCCCc2ccccc2CCCCC[n+]2ccc(C)c(C)c2)cc1C | 72% | 
Cc1cc[n+](CCC#Cc2ccc(C#CCC[n+]3ccc(C)c(C)c3)cc2)cc1C | 10.6% | 
